According to ChEMBL document CHEMBL1123898, “Antitumor imidazotetrazines. 14. Synthesis and antitumor activity of 6- and 8-substituted imidazo[5,1-d]-1,2,3,5-tetrazinones and 8-substituted pyrazolo[5,1-d]-1,2,3,5-tetrazinones” (1987):

Experiments:
Assay type in all cases: functional
L1210 [1] = experiment: Antitumor activity was assessed against L1210 tumors in B6D2F1 mouse by inoculation of 10e5 tumor cells through iv route and number of Survivors to duration was reported at 100 mg/kg po dose; 5/7
L1210 [2] = experiment: Antitumor activity was assessed against L1210 tumors in B6D2F1 mouse by inoculation of 10e5 tumor cells through iv route and number of Survivors to duration was reported at 200 mg/kg po dose; 1/7
L1210 [3] = experiment: Antitumor activity was assessed against L1210 tumors in B6D2F1 mouse by inoculation of 10e5 tumor cells through iv route and mean death of animals (treated/control) was reported at 25 mg/kg po dose
L1210 [4] = experiment: Antitumor activity was assessed against L1210 tumors in B6D2F1 mouse by inoculation of 10e5 tumor cells through iv route and mean death of animals (treated/control) was reported at 50 mg/kg po dose
L1210 [5] = experiment: Antitumor activity was assessed against L1210 tumors in B6D2F1 mouse by inoculation of 10e5 tumor cells through iv route and mean death of animals (treated/control) was reported at 100 mg/kg po dose
L1210 [6] = experiment: Antitumor activity was assessed against L1210 tumors in B6D2F1 mouse by inoculation of 10e5 tumor cells through iv route and mean death of animals (treated/control) was reported at 200 mg/kg po dose
[7] = Antitumor activity was assessed against TLX5 tumors in CBA/CA mouse by inoculation of 2 x 10e5 tumor cells through sc route and mean death of animals (treated/control) was reported at 10 mg/kg ip dose; conditions: route subcutaneous
[8] = Antitumor activity was assessed against TLX5 tumors in CBA/CA mouse by inoculation of 2 x 10e5 tumor cells through sc route and mean death of animals (treated/control) was reported at 160 mg/kg ip dose; conditions: route subcutaneous
[9] = Antitumor activity was assessed against TLX5 tumors in CBA/CA mouse by inoculation of 2 x 10e5 tumor cells through sc route and mean death of animals (treated/control) was reported at 20 mg/kg ip dose; conditions: route subcutaneous
[10] = Antitumor activity was assessed against TLX5 tumors in CBA/CA mouse by inoculation of 2 x 10e5 tumor cells through sc route and mean death of animals (treated/control) was reported at 40 mg/kg ip dose; conditions: route subcutaneous
[11] = Antitumor activity was assessed against TLX5 tumors in CBA/CA mouse by inoculation of 2 x 10e5 tumor cells through sc route and mean death of animals (treated/control) was reported at 80 mg/kg ip dose; conditions: route subcutaneous
L1210 [12] = experiment: Antitumor activity was assessed against L1210 tumors in B6D2F1 mouse by inoculation of 10e5 tumor cells through iv route and number of survivors to duration was reported at 200 mg/kg po dose; 2/7
L1210 [13] = experiment: Antitumor activity was assessed against L1210 tumors in B6D2F1 mouse by inoculation of 10e5 tumor cells through intravenous route and mean death of animals (treated/control) was reported at 10 mg/kg peroral dose; conditions: route oral
L1210 [14] = experiment: Antitumor activity was assessed against L1210 tumors in B6D2F1 mouse by inoculation of 10e5 tumor cells through intravenous route and mean death of animals (treated/control) was reported at 20 mg/kg peroral dose; conditions: route oral
L1210 [15] = experiment: Antitumor activity was assessed against L1210 tumors in B6D2F1 mouse by inoculation of 10e5 tumor cells through intravenous route and mean death of animals (treated/control) was reported at 40 mg/kg peroral dose; conditions: route oral
L1210 [16] = experiment: Antitumor activity was assessed against L1210 tumors in B6D2F1 mouse by inoculation of 10e5 tumor cells through intravenous route and number of Survivors to duration was reported at 20 mg/kg peroral dose; 6/7; conditions: route oral
[17] = Antitumor activity was assessed against TLX5 tumors in CBA/CA mouse by inoculation of 2 x 10e5 tumor cells through subcutaneous route and number of Survivors to duration was reported at 20 mg/kg ip dose; 3/5
[18] = Antitumor activity was assessed against TLX5 tumors in CBA/CA mouse by inoculation of 2 x 10e5 tumor cells through subcutaneous route and number of Survivors to duration was reported at 40 mg/kg ip dose; 1/5
[19] = Antitumor activity was assessed against TLX5 tumors in CBA/CA mouse by inoculation of 2 x 10e5 tumor cells through subcutaneous route and mean death of animals (treated/control) was reported at 20 mg/kg dose
[20] = Antitumor activity was assessed against TLX5 tumors in CBA/CA mouse by inoculation of 2 x 10e5 tumor cells through subcutaneous route and mean death of animals (treated/control) was reported at 40 mg/kg dose
[21] = Antitumor activity was assessed against TLX5 tumors in CBA/CA mouse by inoculation of 2 x 10e5 tumor cells through subcutaneous route and mean death of animals (treated/control) was reported at 80 mg/kg dose
L1210 [22] = experiment: Antitumor activity was assessed against L1210 tumors in B6D2F1 mouse by inoculation of 10e5 tumor cells through intravenous route and number of Survivors to duration was reported at 40 mg/kg peroral dose; 5/7; conditions: route oral
L1210 [23] = experiment: Antitumor activity was assessed against L1210 tumors in B6D2F1 mouse by inoculation of 10e5 tumor cells through intravenous route and mean death of animals (treated/control) was reported at 160 mg/kg peroral dose; conditions: route oral
L1210 [24] = experiment: Antitumor activity was assessed against L1210 tumors in B6D2F1 mouse by inoculation of 10e5 tumor cells through intravenous route and mean death of animals (treated/control) was reported at 80 mg/kg peroral dose; conditions: route oral
L1210 [25] = experiment: Antitumor activity was assessed against L1210 tumors in B6D2F1 mouse by inoculation of 10e5 tumor cells through intravenous route and mean death of animals (treated/control) was reported at 50 mg/kg peroral dose; conditions: route oral
L1210 [26] = experiment: Antitumor activity was assessed against L1210 tumors in B6D2F1 mouse by inoculation of 10e5 tumor cells through iv route and number of Survivors to duration was reported at 40 mg/kg peroral dose; 2/7; conditions: route oral
[27] = Antitumor activity was assessed against TLX5 tumors in CBA/CA mouse by inoculation of 2 x 10e5 tumor cells through sc route and number of Survivors to duration was reported at 20 mg/kg ip dose; 1/5; conditions: route subcutaneous

SMILES | T/C (L1210 [4]) [%] | T/C (L1210 [5]) [%] | T/C (L1210 [6]) [%] | T/C (L1210 [13]) [%] | T/C (L1210 [14]) [%] | T/C (L1210 [15]) [%] | T/C [19] [%] | T/C [20] [%] | T/C [21] [%] | also measured
NC(=O)c1cnn2c(=O)n(CCCl)nnc12 | 186 | >530 | 363 |  |  |  |  |  |  | Survivors (L1210 [1]): 5; Survivors (L1210 [2]): 1; T/C (L1210 [3]): 120%; T/C [7]: 98%; T/C [8]: 221%; T/C [9]: 123%; T/C [10]: 116%; T/C [11]: 143%
CCCc1nc(C(N)=O)c2nnn(CCCl)c(=O)n12 | 151 | 186 | >295 |  |  |  |  |  |  | Survivors (L1210 [12]): 2
CNS(=O)(=O)c1ncn2c(=O)n(CCCl)nnc12 |  |  |  | 283 | >666 | 25 | >375 | >203 | 68 | Survivors (L1210 [16]): 6; Survivors [17]: 3; Survivors [18]: 1
CS(=O)(=O)c1cnn2c(=O)n(CCCl)nnc12 |  |  |  | 155 | 307 | >447 |  |  |  | Survivors (L1210 [22]): 5
O=C(NCc1ccccc1)c1ncn2c(=O)n(CCCl)nnc12 |  |  |  |  |  | 100 |  |  |  | T/C (L1210 [23]): 183%; T/C (L1210 [24]): 130%
CS(=O)(=O)c1ncn2c(=O)n(CCCl)nnc12 |  |  |  | 217 | 257 | >310 | >214 | 66 | 66 | T/C (L1210 [25]): 217%; Survivors (L1210 [26]): 2; Survivors [27]: 1
